Assay results taken from the supplement of paper PMC10307832.

Tests used:
Experiment in all cases: relative viability (nuclei count vs DMSO), 5 days (fraction); higher = more cells survive
[1] = compound: CC[C@@H]1C(=O)N(C)c2cnc(Nc3ccc(C(=O)NC4CCN(C)CC4)cc3OC)nc2N1C1CCCC1 [BI-2536] + COc1cc2c(Oc3ccc(NC(=O)C4(C(=O)Nc5ccc(F)cc5)CC4)cc3F)ccnc2cc1OCCCN1CCOCC1 [Foretinib] (partner 0.25 µM)
Outline: (§1)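 Lung cancer cell lines were seeded in 1536-well plates and dosed by pin tool the next day, with either a single drug or a fixed anchor-drug dose combined with five library-drug doses (not always all listed) spaced in √10 steps. Five days later, one step fixed the cells and stained their nuclei (final 0.05% Triton X-100, 1% formaldehyde, 1 ug/ml Hoechst), and nuclei were counted on 4× images. Relative viability is the nuclei count in treated wells divided by the count in vehicle wells, and each value is the median of duplicate plates.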

[2] = compound: CC1CC(=O)N(C2=CN=C(N=C2N1C3CCCC3)NC4=C(C=C(C=C4)C(=O)NC5CCN(CC5)C)OC)C [NPK76-II-72-1] + Cc1nc(Nc2ncc(C(=O)Nc3c(C)cccc3Cl)s2)cc(N2CCN(CCO)CC2)n1 [Dasatinib] (partner 0.075 µM)
Outline: as §1

[3] = compound: CC1CC(=O)N(C2=CN=C(N=C2N1C3CCCC3)NC4=C(C=C(C=C4)C(=O)NC5CCN(CC5)C)OC)C [NPK76-II-72-1] + Cc1nc(NC(=O)N2CCC[C@H]2C(N)=O)sc1-c1ccnc(C(C)(C)C(F)(F)F)c1 [Alpelisib] (partner 2 µM)
Outline: as §1

[4] = compound: CC[C@@H]1C(=O)N(C)c2cnc(Nc3ccc(C(=O)NC4CCN(C)CC4)cc3OC)nc2N1C1CCCC1 [BI-2536] + N=C(N)NC(=N)NCCc1ccccc1 [Phenformin] (partner 250 µM)
Outline: as §1

Cell Line | relative viability ([1]; first compound 0.01 µM) | relative viability ([1]; first compound 0.03162 µM) | relative viability ([1]; first compound 0.1 µM) | relative viability ([1]; first compound 0.3162 µM) | relative viability ([1]; first compound 1 µM) | relative viability ([2]; first compound 0.01 µM) | relative viability ([2]; first compound 0.03162 µM) | relative viability ([2]; first compound 0.1 µM) | relative viability ([2]; first compound 0.3162 µM) | relative viability ([2]; first compound 1 µM) | relative viability ([3]; first compound 0.01 µM) | relative viability ([3]; first compound 0.03162 µM) | relative viability ([3]; first compound 0.1 µM) | relative viability ([3]; first compound 0.3162 µM) | relative viability ([3]; first compound 1 µM) | relative viability ([4]; first compound 0.01 µM) | relative viability ([4]; first compound 0.03162 µM) | relative viability ([4]; first compound 0.1 µM) | relative viability ([4]; first compound 0.3162 µM) | relative viability ([4]; first compound 1 µM)
NCI-H1437 | 1.25 | 1.18 | 0.852 | 0.198 | 0.179 | 0.416 | 0.388 | 0.321 | 0.33 | 0.417 | 0.972 | 0.945 | 0.974 | 0.898 | 1 | 0.289 | 0.23 | 0.145 | 0.143 | 0.154
NCI-H1563 | 0.905 | 1.06 | 0.923 | 0.67 | 0.552 | 0.465 | 0.416 | 0.469 | 0.461 | 0.425 | 0.859 | 0.939 | 0.948 | 0.833 | 0.955 | 0.719 | 0.63 | 0.683 | 0.525 | 0.498
NCI-H1651 | 0.628 | 0.776 | 0.536 | 0.0828 | 0.0854 | 0.386 | 0.46 | 0.413 | 0.429 | 0.419 | 0.887 | 1.03 | 0.893 | 0.852 | 1.04 | 0.296 | 0.197 | 0.136 | 0.104 | 0.102
NCI-H1666 | 1.02 | 0.981 | 0.826 | 0.447 | 0.421 | 0.705 | 0.841 | 0.723 | 0.832 | 0.912 | 0.951 | 0.957 | 1.02 | 0.911 | 1.01 | 0.564 | 0.576 | 0.435 | 0.313 | 0.341
NCI-H1734 | 0.886 | 0.889 | 0.464 | 0.199 | 0.176 | 0.513 | 0.493 | 0.455 | 0.437 | 0.509 | 0.675 | 0.628 | 0.722 | 0.599 | 0.86 | 0.393 | 0.24 | 0.159 | 0.151 | 0.167
NCI-H1755 | 0.949 | 0.819 | 0.618 | 0.27 | 0.292 | 0.377 | 0.448 | 0.429 | 0.357 | 0.497 | 0.883 | 0.983 | 0.91 | 0.896 | 0.938 | 0.603 | 0.578 | 0.328 | 0.237 | 0.253
NCI-H1793 | 0.585 | 0.364 | 0.202 | 0.164 | 0.173 | 0.328 | 0.432 | 0.412 | 0.383 | 0.386 | 0.611 | 0.679 | 0.677 | 0.521 | 0.788 | 0.369 | 0.197 | 0.149 | 0.138 | 0.139
NCI-H1915 | 1.13 | 0.975 | 0.618 | 0.16 | 0.143 | 0.324 | 0.352 | 0.324 | 0.351 | 0.302 | 1.07 | 1.06 | 1.05 | 1.01 | 1.1 | 0.351 | 0.328 | 0.12 | 0.0657 | 0.0862
NCI-H1944 | 0.822 | 1.09 | 0.907 | 0.134 | 0.178 | 0.205 | 0.219 | 0.224 | 0.221 | 0.226 | 0.801 | 0.81 | 0.871 | 0.715 | 0.928 | 0.206 | 0.243 | 0.122 | 0.0925 | 0.113
NCI-H1975 | 0.942 | 0.85 | 0.508 | 0.148 | 0.114 | 0.336 | 0.402 | 0.359 | 0.439 | 0.382 | 0.569 | 0.691 | 0.592 | 0.622 | 0.665 | 0.394 | 0.355 | 0.215 | 0.126 | 0.118
NCI-H1993 | 0.774 | 0.828 | 0.694 | 0.634 | 0.537 | 0.442 | 0.654 | 0.619 | 0.548 | 0.759 | 0.706 | 0.65 | 0.62 | 0.655 | 0.664 | 0.493 | 0.432 | 0.52 | 0.41 | 0.475
NCI-H2009 | 1.18 | 0.94 | 0.547 | 0.265 | 0.279 | 0.297 | 0.342 | 0.301 | 0.287 | 0.317 | 1.19 | 1.25 | 1.02 | 1.14 | 1.15 | 0.468 | 0.406 | 0.233 | 0.183 | 0.105
NCI-H2023 | 0.864 | 0.914 | 0.671 | 0.0855 | 0.0903 | 0.511 | 0.63 | 0.605 | 0.583 | 0.603 | 0.568 | 0.691 | 0.592 | 0.529 | 0.548 | 0.406 | 0.408 | 0.119 | 0.0985 | 0.0823
NCI-H2085 | 1.02 | 0.686 | 0.707 | 0.199 | 0.276 | 0.258 | 0.266 | 0.24 | 0.227 | 0.22 | 0.889 | 0.946 | 0.932 | 0.899 | 1 | 0.785 | 0.69 | 0.307 | 0.183 | 0.243
NCI-H2087 | 1.03 | 1.17 | 0.476 | 0.133 | 0.124 | 0.873 | 0.873 | 0.813 | 0.941 | 0.71 | 1.1 | 1.1 | 1.07 | 1.01 | 1.48 | 0.477 | 0.503 | 0.173 | 0.0945 | 0.102
NCI-H2126 | 1.43 | 1.28 | 1.05 | 0.309 | 0.27 | 0.594 | 0.591 | 0.58 | 0.607 | 0.709 | 0.759 | 0.81 | 0.752 | 0.71 | 0.734 | 0.5 | 0.495 | 0.231 | 0.279 | 0.247
NCI-H2170 | 1.03 | 1.02 | 0.799 | 0.219 | 0.208 | 0.599 | 0.487 | 0.598 | 0.315 | 0.762 | 0.772 | 0.839 | 0.777 | – | 0.789 | 0.435 | 0.413 | 0.34 | 0.167 | 0.202
NCI-H2228 | 1.05 | 0.583 | 0.217 | 0.15 | 0.156 | 0.367 | 0.547 | 0.495 | 0.566 | 0.619 | 0.595 | 0.81 | 0.555 | 0.733 | 0.807 | 0.328 | 0.214 | 0.129 | 0.106 | 0.102
NCI-H2347 | 1.07 | 0.742 | 0.933 | 0.311 | 0.292 | 0.309 | 0.297 | 0.348 | 0.348 | 0.327 | 0.992 | 1 | 1.07 | 1.07 | 1.11 | – | 0.28 | 0.382 | 0.276 | 0.211
NCI-H2405 | 1.05 | 0.731 | 0.386 | 0.296 | 0.354 | 0.236 | 0.209 | 0.194 | 0.213 | 0.212 | 0.654 | 0.853 | 0.753 | 0.744 | 0.921 | 0.378 | 0.377 | 0.321 | 0.153 | 0.243
NCI-H3122 | 0.969 | 0.916 | 0.488 | 0.122 | 0.118 | 0.796 | 0.802 | 0.76 | 0.697 | 0.956 | 0.709 | 0.724 | 0.789 | 0.838 | 0.776 | 0.38 | 0.34 | 0.137 | 0.158 | 0.127
PC-3 [JPC-3] | 1.06 | 0.914 | 0.753 | 0.17 | 0.187 | 0.937 | 1.02 | 0.916 | 0.973 | 1.07 | 1.01 | 0.949 | 0.987 | 0.985 | 1.09 | 0.477 | 0.461 | 0.271 | 0.202 | 0.176
PC-14 | 0.961 | 0.93 | 0.895 | 0.0827 | 0.0753 | 0.271 | 0.238 | 0.272 | 0.227 | 0.293 | 0.943 | 0.956 | 0.946 | 0.916 | 1.04 | 0.651 | 0.551 | 0.224 | 0.0459 | 0.0271
RERF-LC-KJ | 1 | 0.88 | 0.897 | 0.189 | 0.213 | 0.818 | 0.886 | 0.722 | 0.732 | 0.808 | 0.727 | 0.928 | 0.773 | 0.683 | 0.86 | 0.403 | 0.297 | 0.216 | 0.211 | 0.224
SK-LU-1 | 0.839 | 0.778 | 0.291 | 0.213 | 0.197 | 0.188 | 0.181 | 0.207 | 0.202 | 0.172 | 1.04 | 1.03 | 0.945 | 1.01 | 1.18 | 0.577 | 0.321 | 0.209 | 0.12 | 0.151
SK-MES-1 | 0.926 | 0.778 | 0.927 | 0.204 | 0.168 | 0.468 | 0.352 | 0.399 | 0.341 | 0.403 | 0.835 | 0.847 | 0.868 | 0.907 | 0.883 | 0.704 | 0.626 | 0.209 | 0.162 | 0.167
SW 1573 | 0.878 | 0.91 | 0.936 | 0.196 | 0.158 | 0.46 | 0.592 | 0.556 | 0.589 | 0.509 | 0.7 | 0.891 | 0.7 | 0.764 | 0.819 | 0.333 | 0.283 | 0.131 | 0.106 | 0.0811
